Entries after “also recorded” stand apart in the source; their conditions may differ.
Key:
[1] = system: human Hep3B cells; test: in vitro
Method: (§1) The cytotoxicity of drugs (or drug metabolites) was determined by staining the slide containing the cells with a Live/Dead test kit (Molecular Probes) that produces a green fluorescent response from living cells. At the end of the 3-day culture period post stamping, the three-dimensional cell chip (DataChip) was rinsed three times in PBS for 5 min each. One mL of a dye solution containing 0.5 μM calcein AM was applied to each three-dimensional cell chip using a glass slide with 1 mm thick perimeter gasket acting as a barrier to prevent loss of the dye solution.
(§2) Following incubation for 50 minutes at room temperature, excess dye in the collagen-gel drops was removed by incubating the slides in a petri dish containing 16 mL of PBS for 30 min on a gyratory shaker at 60 rpm. The three-dimensional cell chip was dried thoroughly with nitrogen. The three-dimensional cell chip was scanned with the GenePix® Professional 4200A scanner equipped with blue laser and standard blue filter to determine the green fluorescent intensity and was quantified from the scanning image using GenePix Pro 6.0 (Molecular Devices Co.).
(§3) Percent live cells=(FReaction/FMax)×100
(§4) where FReaction is the green fluorescence intensity of the reaction spot and FMax is the green fluorescence intensity of untreated fully viable cells.
(§5) For efficient stamping, MTMOS-coated glass slides were prepared to contain a sol-gel barrier on the periphery of the slides.
(§6) To this end […] of methyltrimethoxysilane (MTMOS) sol was prepared by mixing 2 mL of MTMOS with 1 mL of HCl (10 mM) and sonicated for 10 min. The sol was spotted on the periphery of the MTMOS-coated slide and then the slide was baked in an oven for 30 min at 120° C.
(§7) The MetaChip was stored at −80° C. for 1 day prior to use. Cytotoxicity studies were performed by spotting 20 nL of test compound in distilled water (0-2 mM) onto the MetaChip spots and partially dried.
(§8) This was followed by stamping of the three-dimensional cell chip (DataChip) containing either MCF7 or Hep3B cells onto the MetaChip.
(§9) To this end, a MetaChip consisting of 20×54 alginate spots was prepared; each spot containing a single human P450 isoform (CYP1A2, CYP2D6, or CYP3A4), a mixture of the three isoforms, or no P450 as a test compound only control. Addition of test compounds was carried out by overlay spotting of solutions of these compounds onto the MetaChip, which was then stamped on top of the DataChip.
(§10) Using three DataChips in combination with three MetaChips, IC50 values for 27 compounds and their P450-generated metabolites against human Hep3B cells were determined. […] The three P450 isoforms were used along with an equimolar mixture of the three isoforms and a test compound only control without P450. The test compounds were added to the MetaChip, which was then stamped onto the DataChip and incubated for 6 h. This was followed by removing the DataChip, rinsing with growth medium, incubating in media for 3 days, and then stained for cell viability.

[2] = Cytotoxicity of compounds and their P450-generated metabolites, Hep3B DataChip stamped with MetaChip; settings: human
Method: as §1, §2, §3, §4, §5, §6, §7, §8, §9, §10

[3] = IC50, CYP1A2, Hep3B DataChip, MetaChip spots with CYP1A2
[4] = IC50, CYP2D6, Hep3B DataChip, MetaChip spots with CYP2D6
[5] = IC50, CYP3A4, Hep3B DataChip, MetaChip spots with CYP3A4
[6] = IC50, Mixture, Hep3B DataChip, equimolar mixture of CYP1A2, CYP2D6, CYP3A4
[7] = IC50, No P450, Hep3B DataChip, test compound only control without P450
[8] = Hep3B cells, compared with no P450

Row | Structure (SMILES) | Activation or deactivation of the toxic response by CYP1A2 [1] | IC50 at 6 h [2, 3] | IC50 at 6 h [2, 4] | IC50 at 6 h [2, 5] | IC50 at 6 h [2, 6] | IC50 at 6 h [2, 7] | Activation or deactivation of the toxic response by CYP2D6 [1] | also measured
1 | CC(=O)Nc1ccc(O)cc1 [Acetaminophen, acetaminophen] | strongly activated | 2590 ± 960 µM | > 1000 µM | 2770 ± 1240 µM | > 1000 µM | > 1000 µM |  | Activation or deactivation of the toxic response by CYP3A4 [1]: strongly activated; IC30 [1]: (IC30: 0.50 ± 0.02)
2 | CC(=O)Oc1ccccc1C(=O)O [Acetylsalicylic Acid] |  | > 1000 µM | > 1000 µM | > 1000 µM | > 1000 µM | > 1000 µM |  | 
3 | CN(C)CCC=C1c2ccccc2CCc2ccccc21 [Amitriptyline] | moderately to weakly deactivated | 75 ± 14.2 µM | 55.9 ± 10.1 µM | 63.4 ± 12.1 µM | 75.6 ± 9.89 µM | 31.7 ± 1.98 µM |  | 
4 | CCN(CC)CCCC(C)Nc1ccnc2cc(Cl)ccc12 (centres unmarked) [Chloroquine] |  | 184 ± 19.9 µM | 112 ± 22.3 µM | 79.7 ± 12.8 µM | 94.5 ± 14.1 µM | 189 ± 25.2 µM |  | Activation or deactivation of the toxic response by CYP3A4 [1, 8]: deactivated
5 | O=P1(N(CCCl)CCCl)NCCCO1 (centres unmarked) [Cyclophosphamide, cyclophosphamide] |  | > 1000 µM | > 1000 µM | 2110 ± 600 µM | > 1000 µM | > 1000 µM |  | Activation or deactivation of the toxic response by CYP3A4 [1, 8]: strongly activated
6 | Nc1ccn([C@@H]2O[C@H](CO)[C@@H](O)[C@@H]2O)c(=O)n1 [Cytarabine] | moderately to weakly deactivated |  |  |  |  |  | deactivating | 
7 | C[C@H]1O[C@@H](O[C@H]2[C@@H](O)C[C@H](O[C@H]3[C@@H](O)C[C@H](O[C@H]4CC[C@@]5(C)[C@H](CC[C@@H]6[C@@H]5C[C@@H](O)[C@]5(C)[C@@H](C7=CC(=O)OC7)CC[C@]65O)C4)O[C@@H]3C)O[C@@H]2C)C[C@H](O)[C@@H]1O [Digoxin] |  | 1.29 ± 0.09 µM | 0.43 ± 0.03 µM | 1.37 ± 0.05 µM | 0.59 ± 0.03 µM | 0.8 ± 0.09 µM |  | IC50 at 6 h ([2]; IC50 values, Hep3B DataChip): < 1 µM
8 | NNC(=O)c1ccncc1 [Isoniazid] |  | 353 ± 89.9 µM | > 1000 µM | > 1000 µM | > 1000 µM | > 1000 µM |  | 
9 | Cl[C@H]1[C@H](Cl)[C@@H](Cl)[C@@H](Cl)[C@H](Cl)[C@H]1Cl [Lindane] | moderately to weakly deactivated | 2730 ± 1080 µM | 5150 ± 1960 µM | 523 ± 133 µM | > 1000 µM | 394 ± 132 µM | deactivating lindane (strongly) | Activation or deactivation of the toxic response by the mixture of the three P450 isoforms [1]: greater deactivation in the mixture than with any of the three individual isoforms
10 | CN(Cc1cnc2nc(N)nc(N)c2n1)c1ccc(C(=O)N[C@@H](CCC(=O)O)C(=O)O)cc1 [Methotrexate] |  | 2.79 ± 0.73 µM | 38.3 ± 12.1 µM | 10.9 ± 2.76 µM | 8 ± 2.97 µM | 2.41 ± 0.55 µM | deactivating | Activation or deactivation of the toxic response by CYP3A4 [1]: deactivated
11 | CN1CCCC1c1cccnc1 (centres unmarked) [Nicotine] | moderately to weakly deactivated |  |  |  |  |  | deactivating | Activation or deactivation of the toxic response by CYP3A4 [1]: deactivated chloroquine, quinidine, nicotine (strongly); IC50 ([2]; IC50, CYP1A2): 90.8 ± 20.3 µM; IC50 ([2]; IC50, CYP2D6): 158 ± 39.5 µM; IC50 ([2]; IC50, CYP3A4): 647 ± 191 µM; IC50 ([2]; IC50, Mixture): 377 ± 147 µM; IC50 ([2]; IC50, No P450): 29.5 ± 4.12 µM
12 | CC(=O)O[C@H]1C(=O)[C@@]2(C)[C@H]([C@H](OC(=O)c3ccccc3)[C@]3(O)C[C@H](OC(=O)[C@H](O)[C@@H](NC(=O)c4ccccc4)c4ccccc4)C(C)=C1C3(C)C)[C@]1(OC(C)=O)CO[C@@H]1C[C@@H]2O [Paclitaxel, paclitaxel] |  |  |  |  |  |  | deactivating | 
13 | C[n+]1ccc(-c2cc[n+](C)cc2)cc1 [Paraquat, paraquat] |  |  |  |  |  |  |  | Activation or deactivation of the toxic response by the mixture of the three P450 isoforms ([1]; Hep3B cells): activation; Activation or deactivation of the toxic response by CYP1A2 [1, 8]: activation; Activation or deactivation of the toxic response by CYP2D6 [1, 8]: activation; also recorded: activated; IC50 [2, 3]: 5.06 ± 0.29 µM; IC50 [2, 4]: 20.8 ± 1.8 µM; IC50 [2, 5]: 52 ± 9.12 µM; IC50 [2, 6]: 44.2 ± 6.05 µM; IC50 [2, 7]: 79.8 ± 12.7 µM
14 | Oc1c(Cl)c(Cl)c(Cl)c(Cl)c1Cl [Pentachlorophenol] |  |  |  |  |  |  |  | IC50 ([2]; IC50, CYP1A2): > 1000 µM; IC50 ([2]; IC50, CYP2D6): > 1000 µM; IC50 ([2]; IC50, CYP3A4): > 1000 µM; IC50 ([2]; IC50, Mixture): 489 ± 272 µM; IC50 ([2]; IC50, No P450): > 1000 µM
15 | C=C[C@H]1C[N@@]2CC[C@H]1C[C@@H]2[C@@H](O)c1ccnc2ccc(OC)cc12 [Quinidine] |  | 92.9 ± 7.5 µM | 106 ± 9.05 µM | 126 ± 10.2 µM | 246 ± 39.4 µM | 19.2 ± 2.36 µM |  | Activation or deactivation of the toxic response by the mixture of the three P450 isoforms ([1]; Hep3B cells): greater deactivation in the mixture than with any of the three individual isoforms; Activation or deactivation of the toxic response by CYP1A2 [1, 8]: moderately to weakly deactivated; Activation or deactivation of the toxic response by CYP2D6 [1, 8]: deactivating; Activation or deactivation of the toxic response by CYP3A4 [1, 8]: deactivated
16 | O=c1[nH]c(=O)n(C2CCCO2)cc1F (centres unmarked) [Tegafur, 5-fluoro-1-(tetrahydro-2-furfuryl)-uracil] |  | > 1000 µM | > 1000 µM | 54800 ± 21400 µM | > 1000 µM | > 1000 µM |  | 
17 | Cn1c(=O)c2[nH]cnc2n(C)c1=O [Theophylline] | moderately to weakly deactivated | 239 ± 56.4 µM | 119 ± 26.3 µM | 36.9 ± 11.2 µM | 84.3 ± 22.1 µM | 38.4 ± 8.92 µM | deactivating | 
18 | CC(=O)CC(c1ccccc1)c1c(O)c2ccccc2oc1=O (centres unmarked) [Warfarin] |  |  |  |  |  |  |  | IC50 at 6 h ([2]; IC50, CYP1A2): > 1000 µM; IC50 at 6 h ([2]; IC50, CYP2D6): > 1000 µM; IC50 at 6 h ([2]; IC50, CYP3A4): > 1000 µM; IC50 at 6 h ([2]; IC50, Mixture): > 1000 µM; IC50 at 6 h ([2]; IC50, No P450): > 1000 µM

Reference: patent publication US20090221441A1, “THREE-DIMENSIONAL CELLULAR ARRAY CHIP AND PLATFORM FOR TOXICOLOGY ASSAYS” (Rensselaer Polytechnic Institute, priority 2005, published 2009)
